In patent EP1410783B1, “Foaming compositions” (Beiersdorf AG, priority 2001, dated 2003):

Experiment: Polarity of lipids (no method described)
Assay type: physicochemical
Conditions: further lipids with polarity ≥ 30 mN/m, listed by INCI name

Polarität | Molecule
31,6 mN/m | CCCCCCCCOC(=O)CCCCCCCCCCCCCCC(C)C [Octyl Isostearate]
36,2 mN/m | Isocetyl Palmitate
31,0 mN/m | CCCCC(CC)COC(=O)CCCCCC(C)C (stereo not drawn) [2- Ethylhexyl Isononanoate]
40,5 mN/m | CCCCCCCC/C=C\CCCCCCCC(=O)OCCOCCOCC [Ethoxydiglycol Oleate]
31,1 mN/m | CC(CCOC(=O)CC(C)CC(C)(C)C)CC(C)(C)C (stereo not drawn) [Trimethylhexyl Isononanoate]
41,9 mN/m | Isoeikosan
43,8 mN/m | CCCCCCCCCCCCCC(C)C [Isohexadecane]

Molecule | Polarität
Dioctylcyclohexane | 39,0 mN/m

Same assay, conditions: lipids of the oil phase with polarity ≤ 30 mN/m, listed by manufacturer, trade name and INCI name

Polarität | Molecule
20,2 mN/m | CCCCCCCC(=O)OCC(COC(=O)CCCCCCC)OC(=O)CCCCCCC [Trivent OCG, Tricaprylin]
26,2 mN/m | CCCCC(CC)C(=O)OCCC(C)CC(C)(C)C (stereo not drawn) [Dermol 98, 2-Ethylhexanosäure 3,5,5 Trimethylester]
10,1 mN/m | PEG 2 Diethylenhexanoate [Dermol 488]
28,5 mN/m | Cyclomethicone [DC Fluid 345]
17,8 mN/m | CCCCCCCCCCCCCCCCCCOC(=O)CCCCCC [Tegosoft SH, Stearyl Heptanoate]
29,2 mN/m | CCCCCCOCCCCCC [Dihexyl Ether]
28,5 mN/m | Cyclopolydimethylsiloxan [Dow Corning Fluid 244]
21,9 mN/m | CCCCCCCCCCCCCCCCCC(=O)OC(C)C [Isopropylstearat, Isopropyl Stearate]
29,9 mN/m | CC(C)CCCCCCCOC(=O)C(C)(C)C [DUB VCI 10, Isodecyl Neopentanoate]
22,1 mN/m | CCCCCCCCCCCCCC(=O)OCC(CCCCCCCC)CCCCCCCCCC (stereo not drawn) [M.O.D., Octyldodeceyl Myristate]
29,6 mN/m | CCCCCCCC(=O)OCCCCCCCC(C)C [Dermol 108, Isodecyl Octanoate]
28,6 mN/m | Cetearyl Isononanoate [Cetiol SN]
29,7 mN/m | CCCCCCCCCC(=O)OCCCC(C)C [Dermol IHD, Isohexyldecanoate]
14,3 mN/m | CCCCOC(=O)CCCCC(=O)OCCCC [Cetiol B, Dibutyl Adipate]
24,5 mN/m | Isotridecyl 3,5,5 Trimethylhexanonanoate [Dermol 139]
2,4 mN/m | Triisostearin [Prisorine 2041 GTIS]
22,7 mN/m | Phenyl Trimethicone [Silikonöl VP 1120]

Molecule | Polarität
CC(C)CCCCCCCOC(=O)CC(C)CC(C)(C)C (stereo not drawn) [Dermol 109, Isodecyl 3,5,5 Trimethyl Hexanoate] | 29,1 mN/m
CCCCCCC(CCCC)C(=O)O (stereo not drawn) [Isocarb 12, Butyl Octanoicacid] | 22,1 mN/m
CCCCCCC(CO)CCCC (stereo not drawn) [Isofol 12, Butyl Octanol] | 17,4 mN/m
CCCCCCCCC(CO)CCCCCC (stereo not drawn) [Isofol 16, Hexyl Decanol] | 24,3 mN/m
CCCCCCCCCCC(CO)CCCCCCCC (stereo not drawn) [Eutanol G, Octyldodecanol] | 24,8 mN/m
